± gives the expanded uncertainty stated by the source.

For this data set the following is noted: 298.15 K; for viscosity / mass density: 100 kPa, Liquid; for viscosity: Capillary tube (Ostwald / Ubbelohde) method; for mass density: Vibrating tube method.
Where [1] appears, read: Kruss K11 tensiometer with Wilhelmy plate.

One may read the surface tension liquid-gas as the force per length acting along the surface. The viscosity is the internal friction of a fluid under shear. As usually defined, the mass density is mass per unit of volume. With `CCCCCCCCCCCCCC[P+](CCCCCC)(CCCCCC)CCCCCC.N#C[N-]C#N` [tetradecyl(trihexyl)phosphonium dicyanamide], the viscosity is recorded as 437.8 ± 17 mPa·s and the mass density was determined as 897.36 ± 0.72 kg/m3. Further, the surface tension liquid-gas under setting [1] is on record as 33.1 ± 0.4 mN/m.

As to `CCCCCCCCCCCC` [dodecane], the viscosity is reported as 1.359 ± 0.015 mPa·s and the mass density is listed as 745.23 ± 0.14 kg/m3. In addition, under setting [1], the surface tension liquid-gas is listed as 24.9 ± 0.2 mN/m.

As for `O` [water], the viscosity is listed as 0.899 ± 0.01 mPa·s. For the setting “Kruss K11 tensiometer and Wilhelmy plate”, the surface tension liquid-gas is 72 ± 0.2 mN/m.

For the origin of these results see the NIST ThermoML archive (doi:10.1016/j.fluid.2015.07.022).
